Data set [1] has as its target ErbB2 insYVMA (HER2-YVMA, SEQ ID NO: 2) (Homo sapiens, UniProt P04626, INS775YVMA/P1170A). The experiment in a line: biochemical. The conditions noted are these: ErbB2 insYVMA enzyme assay; read-out: Assay 1 IC50.
In the next data set the target is ErbB2 WT (Homo sapiens (Human), UniProt P04626). The experiment in a line: ErbB enzyme assay (CisBio HTRF KinEASE-TK), Assay 2. The format is biochemical. The gist of the method:
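ErbB2 phosphorylates 250 nM biotin-TK substrate at 1 mM ATP in 25 mM HEPES pH 7.4, 10 mM MgCl2, 0.01% Triton X-100 and 2% DMSO, for 30 min at 22 °C. Product is detected by HTRF with Sa-XL665 and TK-Ab-Cryptate. Percent of control is set by DMSO-only wells and pre-quenched wells.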

Another data set deals with EGFR (Homo sapiens (Human), UniProt P00533). The experiment in a line: ErbB enzyme assay (CisBio HTRF KinEASE-TK), Assay 3. The format is biochemical. Summed up: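 Inhibition is measured as reduced peptide phosphorylation by HTRF KinEASE-TK at 1 mM ATP and 250 nM substrate, 30 min at 22 °C. Values are IC50s from a 4-parameter logistic fit.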
For data set [2], the target named is ErbB2 with Exon 20 YVMA insertion (HER2-YVMA) (Homo sapiens (Human), UniProt P04626, INS775YVMA). The experiment in a line: Cellular phosphorylation assay, constitutive ErbB2 phosphorylation (Y1196) in engineered NIH 3T3 cells, Assay 4. The format is cell-based. Summed up: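 Engineered NIH 3T3 cells expressing HER2-YVMA treated with compounds 1 h at 37 °C, then formaldehyde-fixed and methanol-permeabilized. pErbB2 Y1196 detected by in-cell infrared immunofluorescence, normalized to GAPDH. IC50 from the normalized curves.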

A further data set has as its target EGFR wild type (EGFR WT) (Homo sapiens (Human), UniProt P00533). The experiment in a line: Cellular phosphorylation assay, EGF-stimulated EGFR phosphorylation in engineered NIH 3T3 cells, Phospho-EGFR DuoSet IC ELISA, Assay 5. The data set is classed as cell-based. Summed up:
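NIH 3T3 cells expressing EGFR WT (20,000/well, attached overnight) were exposed to serially diluted compound for 1 h at 37 °C, then stimulated with 100 ng/ml rEGF for 10 min. Phospho-EGFR in lysates measured by sandwich ELISA optical density; IC50 from curves.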
For orientation: ELISA stands for enzyme-linked immunosorbent assay.

The target in data set [3] is T1, MDR1 (P-gp) (Homo sapiens (Human), UniProt P08183). The experiment in a line: MDR1 transfected MDCKII canine Mdr1 knockout permeability/efflux, Assay 7. The note with it: dog, MDCK-MDR1.
Data set [4] has as its target T1, MDR1 (P-gp). The experiment in a line: MDR1 transfected LLC-PK1 permeability/efflux, Assay 6. The conditions noted are these: pig, LLC-PK1, Assay 6 Pe Ratio, efflux ratio Papp(B-A)/Papp(A-B), MDR1 transfected LLC-PK1.
Experimental: Both MDR1 transfected LLC-PK1 (Assay 6) and MDR1 transfected MDCKII canine Mdr1 knockout cells (Assay 7) were cultured and plated according to manufacturer's recommendations with the exception that the passage media for the MDR1 transfected LLC-PK1 cell line contained only 2% fetal bovine serum so as to extend passage time out to seven days.
Both positive and negative controls were used to assess functionality of P-gp or BCRP efflux in the assays. Stock solutions for assay controls and the test article were prepared in DMSO for final test concentration of 1 μM. Final organic concentration in the assay was 1%. All dosing solutions contained 10 μM lucifer yellow to monitor MDCKII cell monolayer integrity.
For the apical to basolateral determination (A to B), 75 μL of the test article in transport buffer were added to the apical side of the individual transwells and 250 μL of basolateral media, without compound or lucifer yellow, were added to each well. For the basolateral to apical determination (B to A), 250 μL of test article in transport buffer were added to each well and 75 μL transport buffer, without compound or lucifer yellow, were added to each transwell. All tests were performed in triplicate, and each compound was tested for both apical to basolateral and basolateral to apical transport. The plates were incubated for 2 hours on a Lab-Line Instruments Titer Orbital Shaker (VWR, West Chester, PA) at 50 rpm and 37° C. with 5% CO2. All culture plates were removed from the incubator, 50 μL of media were removed from the apical and basolateral portion of each well, and added to 150 μL of 1 μM labetalol in 2:1 acetonitrile (ACN): H2O, v/v.
The plates were read using a Molecular Devices (Sunnyvale, CA) Gemini Fluorometer to evaluate the lucifer yellow concentrations at excitation/emission wavelengths of 425/535 nm. These values were accepted when found to be below 2% for apical to basolateral and 5% basolateral to apical flux across the MDR1-transfected LLC-PK1 or BCRP-transfected MDCKII cell monolayers. The plates were sealed, and the contents of each well analyzed by LC MS/MS. The compound concentrations were determined from the ratio of the peak areas of the compound to the internal standard (labetalol) in comparison to the dosing solution.
A MDS Sciex API 4000 (Applied Biosystems, Foster City, CA) mass spectrometer was used for detection of the analytes in the ion spray positive mode. Analyte responses were measured by multiple reaction monitoring (“MRM”) of transitions unique to each compound (the protonated precursor ion and selected product ions for each test article and m/z 329 to m/z 162 for labetalol, the internal standard.
The total run time, including re-equilibration, for a single injection was 1.2 minutes. […] The total run time, including re-equilibration, for a single injection was 0.61 minutes.
An efflux ratio is calculated from the mean apical to basolateral (A-B) Papp data and basolateral to apical (B-A) Papp data: Efflux ratio=Papp(B−A)/Papp(A−B)
A further data set addresses BCRP (Homo sapiens (Human), UniProt Q9UNQ0). The experiment in a line: BCRP transfected MDCKII canine Mdr1 knockout permeability/efflux, Assay 9. The note with it: dog, Assay 9 Pe Ratio, efflux ratio Papp(B-A)/Papp(A-B), BCRP transfected MDCKII canine Mdr1 knockout.

Chain of ErbB2 WT (P04626 23-1255): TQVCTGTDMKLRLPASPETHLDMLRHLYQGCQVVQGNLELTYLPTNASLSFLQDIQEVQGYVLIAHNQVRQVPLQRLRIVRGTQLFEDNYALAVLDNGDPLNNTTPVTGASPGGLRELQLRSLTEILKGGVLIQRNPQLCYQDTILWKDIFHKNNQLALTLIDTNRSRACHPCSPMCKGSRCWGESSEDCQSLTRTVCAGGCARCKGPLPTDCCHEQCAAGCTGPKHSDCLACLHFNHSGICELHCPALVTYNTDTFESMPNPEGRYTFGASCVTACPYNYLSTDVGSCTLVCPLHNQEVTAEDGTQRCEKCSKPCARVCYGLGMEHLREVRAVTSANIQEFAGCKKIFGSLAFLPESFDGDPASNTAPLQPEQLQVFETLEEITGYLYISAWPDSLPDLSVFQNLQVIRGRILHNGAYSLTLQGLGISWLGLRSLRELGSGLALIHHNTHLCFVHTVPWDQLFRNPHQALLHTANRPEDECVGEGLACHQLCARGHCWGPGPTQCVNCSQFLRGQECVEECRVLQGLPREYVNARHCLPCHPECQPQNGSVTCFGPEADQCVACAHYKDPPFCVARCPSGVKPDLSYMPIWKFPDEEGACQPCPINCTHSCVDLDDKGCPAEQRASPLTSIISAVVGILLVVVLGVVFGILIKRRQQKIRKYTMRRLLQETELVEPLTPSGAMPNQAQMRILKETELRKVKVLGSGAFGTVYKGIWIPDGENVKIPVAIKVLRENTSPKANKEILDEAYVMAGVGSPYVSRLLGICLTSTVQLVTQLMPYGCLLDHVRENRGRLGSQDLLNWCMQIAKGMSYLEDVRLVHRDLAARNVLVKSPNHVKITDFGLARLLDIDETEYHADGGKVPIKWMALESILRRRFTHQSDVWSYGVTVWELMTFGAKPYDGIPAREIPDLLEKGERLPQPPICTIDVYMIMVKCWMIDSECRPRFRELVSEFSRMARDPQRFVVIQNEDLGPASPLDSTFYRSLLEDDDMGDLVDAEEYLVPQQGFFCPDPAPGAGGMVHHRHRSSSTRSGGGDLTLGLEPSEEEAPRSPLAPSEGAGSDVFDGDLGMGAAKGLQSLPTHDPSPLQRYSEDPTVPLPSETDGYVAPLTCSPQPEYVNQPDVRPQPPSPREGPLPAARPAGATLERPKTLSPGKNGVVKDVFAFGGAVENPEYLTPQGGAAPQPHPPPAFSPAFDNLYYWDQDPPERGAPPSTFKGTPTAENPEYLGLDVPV
Chain of ErbB2 with Exon 20 YVMA insertion (HER2-YVMA) (P04626 other isoform, or with tags, fused parts or gaps ins YVMA behind 775): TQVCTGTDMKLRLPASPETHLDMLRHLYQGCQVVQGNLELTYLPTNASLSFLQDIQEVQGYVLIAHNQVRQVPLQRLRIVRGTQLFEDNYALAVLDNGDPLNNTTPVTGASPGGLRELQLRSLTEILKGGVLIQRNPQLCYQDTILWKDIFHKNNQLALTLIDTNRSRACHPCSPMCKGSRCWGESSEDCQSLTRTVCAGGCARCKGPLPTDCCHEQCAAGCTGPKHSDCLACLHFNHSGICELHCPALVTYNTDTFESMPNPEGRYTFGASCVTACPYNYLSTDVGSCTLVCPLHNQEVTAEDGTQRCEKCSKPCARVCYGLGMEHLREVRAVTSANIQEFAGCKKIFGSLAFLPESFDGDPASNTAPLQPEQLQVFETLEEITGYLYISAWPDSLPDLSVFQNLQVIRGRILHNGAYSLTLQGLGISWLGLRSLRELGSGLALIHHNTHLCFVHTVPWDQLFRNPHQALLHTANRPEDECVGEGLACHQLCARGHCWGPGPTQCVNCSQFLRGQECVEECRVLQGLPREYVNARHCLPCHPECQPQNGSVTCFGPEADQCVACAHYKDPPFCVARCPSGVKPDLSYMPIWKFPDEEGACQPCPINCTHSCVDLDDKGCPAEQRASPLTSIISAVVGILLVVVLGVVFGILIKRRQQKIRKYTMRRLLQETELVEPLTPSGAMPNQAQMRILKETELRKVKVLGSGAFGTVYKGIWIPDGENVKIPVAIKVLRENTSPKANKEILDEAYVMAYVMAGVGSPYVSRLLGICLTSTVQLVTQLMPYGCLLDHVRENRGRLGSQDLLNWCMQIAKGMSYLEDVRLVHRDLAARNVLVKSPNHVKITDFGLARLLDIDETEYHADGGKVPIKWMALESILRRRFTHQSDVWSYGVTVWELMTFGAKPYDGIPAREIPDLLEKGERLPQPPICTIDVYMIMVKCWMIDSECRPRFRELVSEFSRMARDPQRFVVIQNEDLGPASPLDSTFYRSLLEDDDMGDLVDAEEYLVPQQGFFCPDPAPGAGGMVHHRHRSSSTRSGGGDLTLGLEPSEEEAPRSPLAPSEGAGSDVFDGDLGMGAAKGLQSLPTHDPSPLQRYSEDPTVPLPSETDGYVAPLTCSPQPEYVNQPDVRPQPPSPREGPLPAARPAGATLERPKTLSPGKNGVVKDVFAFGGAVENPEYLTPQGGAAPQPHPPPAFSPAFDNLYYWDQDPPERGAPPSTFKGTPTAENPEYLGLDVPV
Chain of ErbB2 insYVMA (HER2-YVMA, SEQ ID NO: 2) (P04626 with tags, fused parts or gaps INS775YVMA/P1170A limits assumed): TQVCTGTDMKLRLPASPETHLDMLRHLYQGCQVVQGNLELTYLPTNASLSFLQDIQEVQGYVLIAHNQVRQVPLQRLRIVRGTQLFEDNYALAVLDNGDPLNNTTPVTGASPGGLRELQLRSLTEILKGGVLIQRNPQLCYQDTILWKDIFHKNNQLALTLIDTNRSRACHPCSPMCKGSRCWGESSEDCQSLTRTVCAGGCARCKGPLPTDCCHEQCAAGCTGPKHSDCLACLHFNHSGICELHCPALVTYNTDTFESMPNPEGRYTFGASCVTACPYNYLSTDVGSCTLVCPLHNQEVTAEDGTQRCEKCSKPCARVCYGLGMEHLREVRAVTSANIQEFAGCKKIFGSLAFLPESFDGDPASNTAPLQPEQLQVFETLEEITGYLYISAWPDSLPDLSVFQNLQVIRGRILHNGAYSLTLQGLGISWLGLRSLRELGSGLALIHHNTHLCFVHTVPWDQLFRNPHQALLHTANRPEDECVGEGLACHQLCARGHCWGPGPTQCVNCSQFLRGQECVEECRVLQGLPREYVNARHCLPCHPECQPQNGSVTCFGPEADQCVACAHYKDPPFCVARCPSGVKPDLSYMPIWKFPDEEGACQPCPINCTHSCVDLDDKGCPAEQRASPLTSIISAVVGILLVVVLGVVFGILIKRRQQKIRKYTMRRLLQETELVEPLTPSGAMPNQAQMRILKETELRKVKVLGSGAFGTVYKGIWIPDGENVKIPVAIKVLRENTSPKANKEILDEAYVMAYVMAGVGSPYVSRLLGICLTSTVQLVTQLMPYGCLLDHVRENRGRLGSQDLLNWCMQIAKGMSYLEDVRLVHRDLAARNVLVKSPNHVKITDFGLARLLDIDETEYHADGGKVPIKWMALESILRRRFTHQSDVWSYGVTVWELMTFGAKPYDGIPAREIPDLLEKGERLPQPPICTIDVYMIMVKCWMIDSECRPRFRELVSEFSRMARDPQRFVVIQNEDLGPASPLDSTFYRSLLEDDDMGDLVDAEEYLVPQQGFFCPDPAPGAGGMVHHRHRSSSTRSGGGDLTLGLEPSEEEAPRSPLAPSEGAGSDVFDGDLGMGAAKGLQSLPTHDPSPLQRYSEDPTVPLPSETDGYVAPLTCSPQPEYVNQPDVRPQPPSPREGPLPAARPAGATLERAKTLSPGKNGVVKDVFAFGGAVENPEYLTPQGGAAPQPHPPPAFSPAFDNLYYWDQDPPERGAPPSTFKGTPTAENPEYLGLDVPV
Chain of BCRP (Q9UNQ0 whole entry): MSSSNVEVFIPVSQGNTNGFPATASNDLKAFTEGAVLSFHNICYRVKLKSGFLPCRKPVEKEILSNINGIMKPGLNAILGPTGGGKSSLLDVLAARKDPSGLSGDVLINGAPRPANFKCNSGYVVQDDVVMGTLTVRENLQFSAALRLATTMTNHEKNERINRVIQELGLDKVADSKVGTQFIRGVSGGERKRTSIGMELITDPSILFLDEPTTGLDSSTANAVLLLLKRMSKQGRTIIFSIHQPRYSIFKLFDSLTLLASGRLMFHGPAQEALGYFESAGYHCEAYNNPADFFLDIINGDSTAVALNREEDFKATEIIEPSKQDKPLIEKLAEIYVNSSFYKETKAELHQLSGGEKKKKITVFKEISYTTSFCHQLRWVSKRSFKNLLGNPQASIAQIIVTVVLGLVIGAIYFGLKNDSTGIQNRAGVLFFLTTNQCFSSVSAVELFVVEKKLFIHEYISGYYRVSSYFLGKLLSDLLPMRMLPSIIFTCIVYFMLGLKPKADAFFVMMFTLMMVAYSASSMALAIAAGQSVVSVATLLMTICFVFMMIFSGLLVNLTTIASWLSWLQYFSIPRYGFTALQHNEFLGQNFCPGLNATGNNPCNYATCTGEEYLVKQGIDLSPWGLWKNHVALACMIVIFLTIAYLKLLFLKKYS

In the case of `Cc1cc(Nc2ncnc3cnc(N4C[C@H]5CCS(=O)(=O)[C@H]5C4)nc23)ccc1Oc1ccc2c(c1)ncn2C` (racemic) [Example 92, rac-(3aR,6aR)-5-(8-((3-methyl-4-((1-methyl-1H-benzo[d]imidazol-5-yl)oxy)phenyl)amino)pyrimido[5,4-d]pyrimidin-2-yl)hexahydro-2H-thieno[2,3-c]pyrrole 1,1-dioxide], the IC50 is 10.7 nM in data set [1]; 18.9 nM at ErbB2 WT; 8780 nM against EGFR; 23.3 nM in data set [2]; at least 5000 nM against EGFR wild type (EGFR WT). Further, the efflux ratio at 2 h, 1 μM at MDR1 (P-gp) [3] is 3.8.
Regarding `CO[C@@H]1CN(c2ncc3ncnc(Nc4ccc(Oc5ccc6c(c5)ncn6C)c(C)c4)c3n2)C[C@H]1O` (racemic) [Example 107, ±(3R,4R)-4-methoxy-1-(8-((3-methyl-4-((1-methyl-1H-benzo[d]imidazol-5-yl)oxy)phenyl)amino)pyrimido[5,4-d]pyrimidin-2-yl)pyrrolidin-3-ol], the IC50 in data set [1] is 30.8 nM; against ErbB2 WT, 15.5 nM; on EGFR, at least 10000 nM; in data set [2] it was 31.3 nM; against EGFR wild type (EGFR WT), at least 5000 nM. For the same compound, the efflux ratio at 2 h, 1 μM on MDR1 (P-gp) [3] came out at 3.2.
Turning to `Cc1cc(Nc2ncnc3cnc(N(C)[C@@H]4CNC[C@@H]4F)nc23)ccc1Oc1ccc2c(c1)ncn2C` [Example 94, N2-((3R,4S)-4-fluoropyrrolidin-3-yl)-N2-methyl-N8-(3-methyl-4-((1-methyl-1H-benzo[d]imidazol-5-yl)oxy)phenyl)pyrimido[5,4-d]pyrimidine-2,8-diamine], the IC50 in data set [1] was 21.3 nM; at ErbB2 WT, 31.3 nM; on EGFR, 4360 nM; in data set [2] it was 20.3 nM; against EGFR wild type (EGFR WT), at least 5000 nM. Moreover, the efflux ratio at 2 h, 1 μM on MDR1 (P-gp) [3] was 12.
As to `Cc1cc(Nc2ncnc3cnc(N(C)C[C@H](C)O)nc23)ccc1Oc1ccc2c(c1)ncn2C` [Example 195, (S)-1-(methyl(8-((3-methyl-4-((1-methyl-1H-benzo[d]imidazol-5-yl)oxy)phenyl)amino)pyrimido[5,4-d]pyrimidin-2-yl)amino)propan-2-ol], the IC50 in data set [1] was 17.3 nM; against EGFR, 7290 nM; in data set [2], 10.1 nM; against EGFR wild type (EGFR WT) it was at least 5000 nM. For the same compound, the efflux ratio at 2 h, 1 μM on MDR1 (P-gp) [3] is 4.6.
For `Cc1cc(Nc2ncnc3cnc(-c4cnsc4)nc23)ccc1Oc1ccc2c(c1)ncn2C` [Example 228], the IC50 was 115 nM in data set [1]; 272 nM against ErbB2 WT; at least 10000 nM against EGFR; 24.2 nM in data set [2]; at least 5000 nM on EGFR wild type (EGFR WT). For the same compound, the figures for the efflux ratio at 2 h, 1 μM at MDR1 (P-gp) [4] and at BCRP were 1.1 and 1, respectively.
In the case of `Cc1cc(Nc2ncnc3cnc(-c4cccnc4)nc23)ccc1Oc1ccc2c(c1)ncn2C` [Example 233], the IC50 in data set [1] is 27.5 nM; on ErbB2 WT, 41.5 nM; against EGFR, 3740 nM; in data set [2], 15.7 nM; at EGFR wild type (EGFR WT), at least 5000 nM. The figures for the efflux ratio at 2 h, 1 μM on MDR1 (P-gp) [4] and at BCRP were 1.5 and 1.6, respectively.
As to `Cc1cc(Nc2ncnc3cnc(N4CC5C(C4)C5(F)F)nc23)ccc1Oc1ccc2c(c1)ncn2C` (stereo not drawn) [Example 234], the IC50 in data set [1] was 104 nM; on ErbB2 WT, 165 nM; at EGFR, at least 10000 nM; in data set [2], 39.1 nM; against EGFR wild type (EGFR WT), at least 5000 nM. In addition, the efflux ratio at 2 h, 1 μM at MDR1 (P-gp) [4] is 1.8; on BCRP, 5.2.
On to `Cc1cc(Nc2ncnc3cnc(-c4ccccn4)nc23)ccc1Oc1ccc2c(c1)ncn2C` [Example 239], for which the IC50 in data set [1] is 127 nM; at ErbB2 WT, 107 nM; against EGFR it was at least 10000 nM; in data set [2], 9.1 nM; on EGFR wild type (EGFR WT), at least 5000 nM. For the same compound, the efflux ratio at 2 h, 1 μM on MDR1 (P-gp) [4] came to 2.1; on BCRP, 3.5.
As for `Cc1nc(-c2ncc3ncnc(Nc4ccc(Oc5ccc6c(c5)ncn6C)c(C)c4)c3n2)cs1` [Example 247], the IC50 was 81.7 nM in data set [1]; 96.9 nM on ErbB2 WT; at least 10000 nM at EGFR; 3.5 nM in data set [2]; at least 5000 nM at EGFR wild type (EGFR WT). Moreover, the figures for the efflux ratio at 2 h, 1 μM on MDR1 (P-gp) [4] and at BCRP were 1.6 and 4.7, respectively.
Regarding `Cc1cc(Nc2ncnc3cnc(N4CCC[C@H]4C(F)(F)F)nc23)ccc1Oc1ccc2c(c1)ncn2C` [Example 249], the IC50 in data set [1] is 35.9 nM; on ErbB2 WT, 23.4 nM; against EGFR, at least 10000 nM; in data set [2], 37.4 nM; against EGFR wild type (EGFR WT) it was at least 5000 nM. The efflux ratio at 2 h, 1 μM stood at 0.3 on MDR1 (P-gp) [4] and 3 on BCRP.
Regarding `Cc1cc(Nc2ncnc3cnc(N4CC[C@H](C(F)F)C4)nc23)ccc1Oc1ccc2c(c1)ncn2C` [Example 252], the IC50 in data set [1] is 92.9 nM; on ErbB2 WT, 242 nM; against EGFR it was at least 10000 nM; in data set [2], 25.7 nM; at EGFR wild type (EGFR WT) it was at least 5000 nM. Also, the efflux ratio at 2 h, 1 μM on MDR1 (P-gp) [4] amounted to 0.7; at BCRP, 2.6.
As for `Cc1cc(Nc2ncnc3cnc(N4CC[C@@H](C(F)F)C4)nc23)ccc1Oc1ccc2c(c1)ncn2C` [Example 253], the IC50 is 93 nM in data set [1]; 171 nM against ErbB2 WT; at least 10000 nM on EGFR; 39.3 nM in data set [2]; at least 5000 nM on EGFR wild type (EGFR WT). The efflux ratio at 2 h, 1 μM on MDR1 (P-gp) [4] stood at 1.2; on BCRP, 2.
Regarding `Cc1cc(Nc2ncnc3cnc(N4C[C@H]5C[C@@H]4CO5)nc23)ccc1Oc1ccc2c(c1)ncn2C` [Example 262], the IC50 in data set [1] was 22.3 nM; on ErbB2 WT, 116 nM; on EGFR it was at least 10000 nM; in data set [2], 44 nM; against EGFR wild type (EGFR WT) it was at least 5000 nM. The efflux ratio at 2 h, 1 μM on MDR1 (P-gp) [4] came to 1.7; on BCRP, 2.7.
Regarding `Cc1cc(Nc2ncnc3cnc(N4CCOC(C)(C)C4)nc23)ccc1Oc1ccc2c(c1)ncn2C` [Example 272], the IC50 in data set [1] was 67.3 nM; against ErbB2 WT it was 104 nM; against EGFR, 9000 nM; in data set [2], 40.2 nM; at EGFR wild type (EGFR WT), at least 5000 nM. Also, the results for the efflux ratio at 2 h, 1 μM at MDR1 (P-gp) [4] and on BCRP were 1.6 and 0.6, respectively.
As for `Cc1cc(Nc2ncnc3cnc(N4C[C@@H]5C[C@H]4CO5)nc23)ccc1Oc1ccc2c(c1)ncn2C` [Example 274], the concentration for half-maximal inhibition (IC50) in data set [1] is 30.7 nM; at ErbB2 WT, 38.8 nM; against EGFR, 3250 nM; in data set [2] it was 12.1 nM; at EGFR wild type (EGFR WT), at least 5000 nM. Further, the efflux ratio at 2 h, 1 μM is 2.4 on MDR1 (P-gp) [4] and 1.7 on BCRP.
As for `Cc1cc(Nc2ncnc3cnc(N4CC5(CCO5)C4)nc23)ccc1Oc1ccc2c(c1)ncn2C` [Example 282], the IC50 is 40 nM in data set [1]; 83.9 nM on ErbB2 WT; at least 10000 nM on EGFR; 26.3 nM in data set [2]; at least 5000 nM at EGFR wild type (EGFR WT). The efflux ratio at 2 h, 1 μM on MDR1 (P-gp) [4] amounted to 1.9; at BCRP it was 3.5.
Take `Cc1cc(Nc2ncnc3cnc(N(C)CC4CCO4)nc23)ccc1Oc1ccc2c(c1)ncn2C` (stereo not drawn) [Example 350]: the IC50 was 40 nM in data set [1]; 83.9 nM on ErbB2 WT; at least 10000 nM on EGFR; 26.3 nM in data set [2]; at least 5000 nM on EGFR wild type (EGFR WT). Also, the values for the efflux ratio at 2 h, 1 μM on MDR1 (P-gp) [4] and on BCRP were 1.9 and 3.5, respectively.

In general, IC50 refers to the concentration that gives 50% inhibition. A word on the efflux ratio: it is a quotient of directional permeabilities that is used to spot active efflux.

Source of the values: patent publication US11834453B2, “Substituted pyrimido[5,4-d]pyrimidines as HER2 inhibitors” (Array BioPharma Inc., priority 2020, dated 2023).
